Legend:
Experiment in all cases: Herbicidal activity, post-emergence stem and leaf spray in greenhouse
Format in all cases: in vivo
Conditions in all cases: Post-emergence treatment
[1] = test system: Setaria glauca (L.) Beauv.
From the text: (§1) Seeds of broadleaf weeds (Zinnia elegans Jacq. and Abutilon theophrasti Medic.) or grass weeds (Setaria glauca (L.) Beauv. and Echinochloa crusgalli (L.) Beauv.) were respectively sown in a paper cup having a diameter of 7 cm and containing nutrient soil. After sowing, the seeds were covered with 1 cm of soil, the soil was pressed and watered, and then the seeds were cultivated in a greenhouse according to a conventional method, and stems and leaves were sprayed after 2-3 leaf stage of the weeds.
(§2) The compounds of the present invention were dissolved in acetone, and then diluted with 0.1% aqueous solution of Tween 80 to form the test liquid. According to the design dose of the test, spray treatment was carried out by track sprayer (Engineer Research Ltd., pressure 1.95 kg/cm^2, volume 500 L/hm^2, track speed 1.48 km/h). The test was repeated for three times. The test material was treated and then placed in an operation hall. The medicinal liquid was naturally dried in the shade, and then was placed in a greenhouse and managed according to the conventional method. The response of the weeds to the drug was visually observed and recorded. After treatment, the state of growth of the respective weeds were visually observed regularly to determine the growth inhibition rate (%) in accordance with the following evaluation standard.
(§3) Growth inhibition rate (%): 0=no discernible action: 100=all weeds dead or not emerged.

[2] = test system: Abutilon theophrasti Medic.
From the text: as §1, §2, §3

Zinnia elegans Jacq. = test system: Zinnia elegans Jacq.
From the text: as §1, §2, §3

[3] = dose 37.5 g a.i./hm^2, Table 3 parallel test
[4] = dose 75 g a.i./hm^2, Table 3 parallel test

Structure (SMILES) | growth inhibition rate % ([1]; dose 37.5 g a.i./hm^2, Table 2) | growth inhibition rate % ([1]; dose 150 g a.i./hm^2, Table 2) | growth inhibition rate % ([1]; dose 600 g a.i./hm^2, Table 2) | growth inhibition rate % [2, 3] | growth inhibition rate % [2, 4] | growth inhibition rate % [1, 3] | growth inhibition rate % [1, 4] | growth inhibition rate % (Zinnia elegans Jacq.; [3]) | growth inhibition rate % (Zinnia elegans Jacq.; [4])
CCn1nc(C(=O)Oc2c(C(=O)c3ccc(S(C)(=O)=O)c(OCC4CC4)c3C)c(C)nn2C)cc1C [Compound 1-20] | 65% | 100% | 100% | – | – | – | – | – | –
C=CCOc1c(S(C)(=O)=O)ccc(C(=O)c2c(C)nn(C)c2OC(=O)c2cc(C)n(CC)n2)c1C [Compound 1-26] | 75% | 100% | 100% | – | – | – | – | – | –
CCn1nc(C(=O)Oc2c(C(=O)c3ccc(S(C)(=O)=O)c(OCCOC)c3C)cnn2CC)cc1C [Compound 1-32] | 90% | 100% | 100% | 100% | 100% | 90% | 100% | 100% | 100%
CCn1nc(C(=O)Oc2c(C(=O)c3ccc(S(C)(=O)=O)c(OCCOC)c3C)c(C)nn2C)cc1C [Compound 1-33] | 70% | 100% | 100% | – | – | – | – | – | –
CCn1nc(C(=O)Oc2c(C(=O)c3ccc(S(C)(=O)=O)c(OCCOC)c3C)c(C)nn2C(C)C)cc1C [Compound 1-34] | 65% | 100% | 100% | – | – | – | – | – | –
CCc1nn(C)c(OC(=O)c2cc(C)n(CC)n2)c1C(=O)c1ccc(S(C)(=O)=O)c(OCCOC)c1C [Compound 1-36] | 70% | 100% | 100% | – | – | – | – | – | –
CCn1nc(C(=O)Oc2c(C(=O)c3ccc(S(C)(=O)=O)c(OCCOC)c3C)c(C)nn2CC)cc1C [Compound 1-37] | 100% | 100% | 100% | – | – | – | – | – | –
CCOCCOc1c(S(C)(=O)=O)ccc(C(=O)c2c(C)nn(C)c2OC(=O)c2cc(C)n(CC)n2)c1C [Compound 1-44] | 70% | 100% | 100% | – | – | – | – | – | –
CCn1nc(C)cc1C(=O)Oc1c(C(=O)c2ccc(S(C)(=O)=O)c(OCCOC)c2C)cnn1CC [Compound 1-139] | 80% | 100% | 100% | – | – | – | – | – | –
CCn1nc(C)cc1C(=O)Oc1c(C(=O)c2ccc(S(C)(=O)=O)c(OCCOC)c2C)c(C)nn1C [Compound 1-140] | 80% | 100% | 100% | – | – | – | – | – | –
CCn1ncc(C(=O)c2ccc(S(C)(=O)=O)c(COCC(F)(F)F)c2Cl)c1OC(=O)c1cn(C)nc1C [KC3, fenpyrazone, reference compound] | – | – | – | 30% | 95% | 60% | 70% | 40% | 50%
